Measured values: patent US9706790B2, “Compounds, compositions, and methods for reducing or eliminating bitter taste” (CHROMOCELL CORPORATION, priority 2011, dated 2017)

Tested on: bitter taste of KCl
Experiment: KCl Latin Square-2AFC taste test, macaroni and cheese (chew and spit)
Format: in vivo, humans
Conditions: KCl 5.7% in cheese powder (0.34% in final prepared food product); for # of panelists discerning decrease in bitter taste/# of panelists tested: versus KCl standard
Method: The taste test panelists used in the following examples were screened based upon and selected for their ability to perceive the bitter taste associated with potassium chloride. Only panelists capable of perceiving bitter taste participated in the following taste tests.
The effect of the test compounds on the perception of the bitter taste of KCl in prepared food products in humans was evaluated using a “chew and spit” test using a Latin Square-2AFC testing method as follows.
Edible KCl food products (“KCl test food product”) were prepared according to the following instructions. 6 cups water were boiled in stainless steel pot to a ‘rolling’ boil. Once a rolling boil was achieved, 166.5 grams of pasta were added to the boiling water. The pasta was stirred briefly to prevent the pasta from sticking to the pot. The pasta was boiled for 8.5 minutes and drained in a stainless steel colander. The pasta was shaken (approximately 15 times back and forth and twice up and down) to remove excess water. The drained pasta was returned to the stainless steel pot, and 56 grams (4 tablespoons) Land O'Lakes™ unsalted butter was added to the hot pasta. When the unsalted butter was half melted, 39.5 grams cheese powder (containing the KCl) was added in the center of the pasta. Separately, test compound was diluted in 1 ml of propylene glycol (PG; alternatively the test compound may also be diluted in a milk stock solution or a butter oil stock solution) and the resulting solution added to 99 ml of milk. 63 ml of the PG/milk solution was poured around cheese powder and gently folded into the pasta with a stainless steel spoon in order to avoid cheese clumping on spoon. KCl standards were similarly prepared by adding milk without any test compound.
The panelists tasted portions by chewing and spitting. In order to eliminate any effects of sample order, a complete Latin Square design was employed so that each possible order of sample presentation was utilized across subjects. Each sample was tested in several discrete taste test experiments. […]

Question: How did the “Conc. at Which At Least 50% of Panelists Discerned Decrease in Bitter Taste” value turn out when `C/C(=C\CO)CCCC(C)CCCC(C)CCCC(C)C` (stereo not drawn) [Compound 5] was run?
Answer: The value was 10 ppm.

Question: And the “# of panelists discerning decrease in bitter taste/# of panelists tested” value (compound at 10 ppm)?
Answer: Its value is 10 (28/50).

Question: What about the “# of panelists discerning decrease in bitter taste/# of panelists tested” value (compound at 20 ppm) of the same molecule?
Answer: Its value is 20 (20/49).
